Holding throughout (format): in vivo
One series has as its system Scirpus juncoides. The series can be described thus: Test Example 1: herbicidal activity, application before weed generation in submerged conditions (symbol B). The settings on record: application herbicide amount 320 g/ha. A digest of the protocol: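 Paddy pre-emergence test. Formulated emulsion, water-diluted to a predetermined rate, is applied to floodwater on sowing day; rice transplanted at 2.5 leaves. Effect read at 3 weeks on a 0–5 herbicidal-ratio scale.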

Series [1] has as its system Setaria viridis. The series can be described thus: Test Example 4: herbicidal effect by soil treatment (symbol G). To be noted: application herbicide amount 320 g/ha. A digest of the protocol:
(§1)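 Seeds were sown in sterilized diluvial soil, covered with about 1.5 cm of soil, and the soil surface was sprayed with a water-diluted emulsion of the compound at a predetermined rate. Plants grew in a greenhouse at 25° C. to 30° C.; effects were scored visually 3 weeks after application.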

The next series deals with Avena fatua. Put plainly: Test Example 4: herbicidal effect by soil treatment (symbol I). The settings on record: application herbicide amount 320 g/ha. The method in brief: as §1
Series [2] has as its system Alopecurus myosuroides. The series can be described thus: Test Example 4: herbicidal effect by soil treatment (symbol J). To be noted: application herbicide amount 320 g/ha. The method in brief: as §1
A further series concerns Lolium multiflorum Lam. The series can be described thus: Test Example 4: herbicidal effect by soil treatment (symbol K). The settings on record: application herbicide amount 320 g/ha. The method in brief: as §1
A further series has as its system Abutilon theophrasti. Put plainly: Test Example 4: herbicidal effect by soil treatment (symbol M). To be noted: application herbicide amount 320 g/ha. A digest of the protocol:
as §1

The subject of series [3] is Amaranthus retroflexus. The series can be described thus: Test Example 4: herbicidal effect by soil treatment (symbol N). The settings on record: application herbicide amount 320 g/ha. A digest of the protocol:
as §1

In the next series the test system is Stellaria media. The series can be described thus: Test Example 4: herbicidal effect by soil treatment (symbol P). To be noted: application herbicide amount 320 g/ha. The method in brief:
as §1

Another series relates to corn. The series can be described thus: Test Example 4: effect on crop by soil treatment (symbol c). To be noted: application herbicide amount 320 g/ha. The method in brief:
(§2)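 Grown at 25° C. to 30° C. in a greenhouse, the crops came from seed sown spot-wise in sterilized diluvial soil under roughly 1.5 cm of covering soil.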

In series [4] the test system is soybean. Put plainly: Test Example 4: effect on crop by soil treatment (symbol d). The settings on record: application herbicide amount 320 g/ha. The method in brief:
as §2

Another series relates to rice. The series can be described thus: Test Example 4: effect on crop by soil treatment (symbol b). To be noted: application herbicide amount 320 g/ha. A digest of the protocol:
as §2

Series [5] concerns wheat. Put plainly: Test Example 4: effect on crop by soil treatment (symbol e). The settings on record: application herbicide amount 320 g/ha. A digest of the protocol:
as §2

The subject of another series is Digitaria ciliaris. The series can be described thus: Test Example 5: herbicidal effect by foliage application, plastic box (symbol F). To be noted: 320 g/ha, 3 weeks after application. The method in brief:
(§3)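 Effect is rated 3 weeks after a foliar spray of water-diluted emulsion concentrate at a predetermined herbicide amount. Plants had grown 14 days in a 25° C. to 30° C. greenhouse from seed in sterilized diluvial soil.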

Series [6] has as its system Setaria viridis. Put plainly: Test Example 5: herbicidal effect by foliage application, plastic box (symbol G). The settings on record: 320 g/ha, 3 weeks after application. The method in brief: as §3
Series [7] deals with Echinochloa crus-galli var. crus-galli. Put plainly: Test Example 5: herbicidal effect by foliage application, plastic box (symbol H). The settings on record: 320 g/ha, 3 weeks after application. A digest of the protocol: as §3
For series [8], the system named is Alopecurus myosuroides. Put plainly: Test Example 5: herbicidal effect by foliage application, plastic box (symbol J). The settings on record: 320 g/ha, 3 weeks after application. The method in brief: as §3
For series [9], the system named is Amaranthus retroflexus. The series can be described thus: Test Example 5: herbicidal effect by foliage application, plastic box (symbol N). The settings on record: 320 g/ha, 3 weeks after application. The method in brief:
as §3

For series [10], the system named is soybean. The series can be described thus: Test Example 5: effect on crop by foliage application, plastic box (symbol d). To be noted: 320 g/ha, 3 weeks after application. A digest of the protocol:
(§4)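 Foliage-application test plants come from spot sowing in sterilized diluvial soil under a soil layer of about 1.5 cm, grown at 25° C. to 30° C. in a greenhouse.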

A further series concerns rice plant. The series can be described thus: Test Example 5: effect on crop by foliage application, plastic box (symbol b). The settings on record: 320 g/ha, 3 weeks after application. The method in brief:
as §4

The test system of series [11] is wheat. The series can be described thus: Test Example 5: effect on crop by foliage application, plastic box (symbol e). The settings on record: 320 g/ha, 3 weeks after application. The method in brief:
as §4

`CON=C(C)CC1CC(OC(=O)C(C)CSC)=C(c2c(C)cc(-c3ccc(Cl)cc3)cc2C)C1=O` (stereo not drawn) [6-086]: in the series on Scirpus juncoides, the “Herbicidal effect grade, B: Scirpus juncoides” value (“Herbicidal effect grade, B” for short) is 2 (Herbicidal ratio of 20% or higher and lower than 40%). The “Herbicidal effect grade, G: Setaria viridis” value (“Herbicidal effect grade, G” for short) in the series with Setaria viridis [1] was 5 (Herbicidal ratio of 90% or more (almost completely withered)). Further, the “Herbicidal effect grade, I: Avena fatua” value with Avena fatua is 4 (Herbicidal ratio of 70% or higher and lower than 90%). For the same compound, in the series with Alopecurus myosuroides [2], the “Herbicidal effect grade, J: Alopecurus myosuroides” value (“Herbicidal effect grade, J” for short) is reported as 5 (Herbicidal ratio of 90% or more (almost completely withered)). Also, the “Herbicidal effect grade, K: Lolium multiflorum Lam.” value (shortened to “Herbicidal effect grade, K”) in the series on Lolium multiflorum Lam. is on record as 5 (Herbicidal ratio of 90% or more (almost completely withered)). Further, the “Herbicidal effect grade, M: Abutilon theophrasti” value (from here on “Herbicidal effect grade, M”) with Abutilon theophrasti is 0 (Herbicidal ratio of 5% or lower (almost no effect)). In addition, the “Herbicidal effect grade, N: Amaranthus retroflexus” value (shortened to “Herbicidal effect grade, N”) in the series with Amaranthus retroflexus [3] is 3 (Herbicidal ratio of 40% or higher and lower than 70%). Moreover, in the series on Stellaria media, the “Herbicidal effect grade, P: Stellaria media” value (“Herbicidal effect grade, P” below) was 4 (Herbicidal ratio of 70% or higher and lower than 90%). The “Effect on crop grade, c: corn” value in the series on corn is recorded as 0 (Herbicidal ratio of 5% or lower (almost no effect)). The “Effect on crop grade, d: soybean” value in the series with soybean [4] is 5 (Herbicidal ratio of 90% or more (almost completely withered)). Moreover, the “Effect on crop grade, b: directly sowed rice plant” value (“Effect on crop grade, b” below) in the series with rice is 1 (Herbicidal ratio of 5% or higher and lower than 20%). Also, the “Effect on crop grade, e: wheat” value in the series on wheat [5] is 2 (Herbicidal ratio of 20% or higher and lower than 40%). Besides, the “F: Digitaria ciliaris, herbicidal effect (criteria of Test Example 1)” value with Digitaria ciliaris is listed as 5 (Herbicidal ratio of 90% or more (almost completely withered)). Further, in the series with Setaria viridis [6], the “G: Setaria viridis, herbicidal effect (criteria of Test Example 1)” value was 5 (Herbicidal ratio of 90% or more (almost completely withered)). The “H: Echinochloa crus-galli var. crus-galli, herbicidal effect (criteria of Test Example 1)” value in [7] is 5 (Herbicidal ratio of 90% or more (almost completely withered)). In addition, the “J: Alopecurus myosuroides, herbicidal effect (criteria of Test Example 1)” value with Alopecurus myosuroides [8] is recorded as 5 (Herbicidal ratio of 90% or more (almost completely withered)). The “N: Amaranthus retroflexus, herbicidal effect (criteria of Test Example 1)” value with Amaranthus retroflexus [9] is 0 (Herbicidal ratio of 5% or lower (almost no effect)). Further, the “d: soybean, effect on crop (criteria of Test Example 1)” value in the series on soybean [10] is 5 (Herbicidal ratio of 90% or more (almost completely withered)). For the same compound, the “b: directly sowed rice plant, effect on crop (criteria of Test Example 1)” value with rice plant is given as 5 (Herbicidal ratio of 90% or more (almost completely withered)). Moreover, the “e: wheat, effect on crop (criteria of Test Example 1)” value with wheat [11] is listed as 5 (Herbicidal ratio of 90% or more (almost completely withered)).

For `CC(=O)CC1CC(O)=C(c2c(C)cc(-c3ccc(Cl)cc3)cc2C)C1=O` (stereo not drawn) [7-008], the “Herbicidal effect grade, B” value with Scirpus juncoides is 2 (Herbicidal ratio of 20% or higher and lower than 40%). Besides, the “Herbicidal effect grade, G” value in the series on Setaria viridis [1] is 5 (Herbicidal ratio of 90% or more (almost completely withered)). In addition, in the series with Avena fatua, the “Herbicidal effect grade, I: Avena fatua” value was 3 (Herbicidal ratio of 40% or higher and lower than 70%). In addition, the “Herbicidal effect grade, J” value in the series on Alopecurus myosuroides [2] was 5 (Herbicidal ratio of 90% or more (almost completely withered)). In addition, the “Herbicidal effect grade, K” value in the series on Lolium multiflorum Lam. was 5 (Herbicidal ratio of 90% or more (almost completely withered)). Further, in the series on Abutilon theophrasti, the “Herbicidal effect grade, M” value is on record as 0 (Herbicidal ratio of 5% or lower (almost no effect)). Besides, in the series with Amaranthus retroflexus [3], the “Herbicidal effect grade, N” value is recorded as 0 (Herbicidal ratio of 5% or lower (almost no effect)). The “Herbicidal effect grade, P” value in the series on Stellaria media is recorded as 0 (Herbicidal ratio of 5% or lower (almost no effect)). Moreover, the “Effect on crop grade, c: corn” value with corn is 4 (Herbicidal ratio of 70% or higher and lower than 90%). The “Effect on crop grade, d: soybean” value in the series with soybean [4] is given as 0 (Herbicidal ratio of 5% or lower (almost no effect)). Moreover, the “Effect on crop grade, b” value in the series with rice was 5 (Herbicidal ratio of 90% or more (almost completely withered)). Also, in the series with wheat [5], the “Effect on crop grade, e: wheat” value was 1 (Herbicidal ratio of 5% or higher and lower than 20%). For the same compound, the “F: Digitaria ciliaris, herbicidal effect (criteria of Test Example 1)” value with Digitaria ciliaris was 5 (Herbicidal ratio of 90% or more (almost completely withered)). Moreover, in the series with Setaria viridis [6], the “G: Setaria viridis, herbicidal effect (criteria of Test Example 1)” value is given as 5 (Herbicidal ratio of 90% or more (almost completely withered)). Besides, the “H: Echinochloa crus-galli var. crus-galli, herbicidal effect (criteria of Test Example 1)” value in series [7] is given as 5 (Herbicidal ratio of 90% or more (almost completely withered)). In the series on Alopecurus myosuroides [8], the “J: Alopecurus myosuroides, herbicidal effect (criteria of Test Example 1)” value is 5 (Herbicidal ratio of 90% or more (almost completely withered)). Besides, the “N: Amaranthus retroflexus, herbicidal effect (criteria of Test Example 1)” value in the series on Amaranthus retroflexus [9] is recorded as 0 (Herbicidal ratio of 5% or lower (almost no effect)). In addition, in the series with soybean [10], the “d: soybean, effect on crop (criteria of Test Example 1)” value is listed as 0 (Herbicidal ratio of 5% or lower (almost no effect)). Moreover, the “b: directly sowed rice plant, effect on crop (criteria of Test Example 1)” value with rice plant is given as 5 (Herbicidal ratio of 90% or more (almost completely withered)). Moreover, the “e: wheat, effect on crop (criteria of Test Example 1)” value with wheat [11] is 4 (Herbicidal ratio of 70% or higher and lower than 90%).

On to `CON=C(C)C(=O)C1CC(O)=C(c2c(C)cc(C)cc2C)C1=O` (stereo not drawn) [8-002], for which, in the series with Scirpus juncoides, the “Herbicidal effect grade, B” value is recorded as 0 (Herbicidal ratio of 5% or lower (almost no effect)). In addition, the “Herbicidal effect grade, G” value with Setaria viridis [1] was 0 (Herbicidal ratio of 5% or lower (almost no effect)). The “Herbicidal effect grade, I: Avena fatua” value with Avena fatua was 0 (Herbicidal ratio of 5% or lower (almost no effect)). Moreover, the “Herbicidal effect grade, J” value in the series on Alopecurus myosuroides [2] was 0 (Herbicidal ratio of 5% or lower (almost no effect)). Further, in the series with Lolium multiflorum Lam., the “Herbicidal effect grade, K” value is recorded as 0 (Herbicidal ratio of 5% or lower (almost no effect)). For the same compound, the “Herbicidal effect grade, M” value with Abutilon theophrasti was 0 (Herbicidal ratio of 5% or lower (almost no effect)). The “Herbicidal effect grade, N” value with Amaranthus retroflexus [3] is listed as 0 (Herbicidal ratio of 5% or lower (almost no effect)). In the series with Stellaria media, the “Herbicidal effect grade, P” value is listed as 0 (Herbicidal ratio of 5% or lower (almost no effect)). Also, the “Effect on crop grade, c: corn” value in the series on corn is listed as 0 (Herbicidal ratio of 5% or lower (almost no effect)). Further, the “Effect on crop grade, d: soybean” value in the series on soybean [4] is recorded as 0 (Herbicidal ratio of 5% or lower (almost no effect)). The “Effect on crop grade, b” value in the series on rice was 0 (Herbicidal ratio of 5% or lower (almost no effect)). Besides, in the series with wheat [5], the “Effect on crop grade, e: wheat” value is recorded as 0 (Herbicidal ratio of 5% or lower (almost no effect)). Further, in the series on Digitaria ciliaris, the “F: Digitaria ciliaris, herbicidal effect grade” value is on record as 0 (Herbicidal ratio of 5% or lower (almost no effect)). In the series on Setaria viridis [6], the “G: Setaria viridis, herbicidal effect grade” value is recorded as 0 (Herbicidal ratio of 5% or lower (almost no effect)). In addition, the “H: Echinochloa crus-galli var. crus-galli, herbicidal effect grade” value in series [7] is 3 (Herbicidal ratio of 40% or higher and lower than 70%). Moreover, the “J: Alopecurus myosuroides, herbicidal effect grade” value in the series with Alopecurus myosuroides [8] is 4 (Herbicidal ratio of 70% or higher and lower than 90%). The “N: Amaranthus retroflexus, herbicidal effect grade” value in the series on Amaranthus retroflexus [9] is reported as 0 (Herbicidal ratio of 5% or lower (almost no effect)). Besides, the “d: soybean, effect on crop grade” value in the series with soybean [10] is 0 (Herbicidal ratio of 5% or lower (almost no effect)). In the series on rice plant, the “b: directly sowed rice plant, effect on crop grade” value was 4 (Herbicidal ratio of 70% or higher and lower than 90%). Further, in the series on wheat [11], the “e: wheat, effect on crop grade” value was 0 (Herbicidal ratio of 5% or lower (almost no effect)).

For the origin of these results see US11000033B2, “Ketone or oxime compound, and herbicide” (NISSAN CHEMICAL CORPORATION, priority 2014, dated 2021).
